We go through 15 compounds from US7473698B2, “Secondary amino anilinic piperidines as MCH1 antagonists and uses thereof” (H. Lunbeck A/S, priority 2003, dated 2009).

Test [1] deals with T1, rat MCH-1 (Rattus norvegicus, UniProt P97639). As to the kind of experiment: Radioligand binding assay at cloned rat MCH1 receptor, [3H]Compound A, Peakr293 cell membranes. Details: expressed in transfected cells; host or cells: Human embryonic kidney Peak rapid 293 cells (Peakr293), transient, calcium phosphate; membranes. The note with it: 0.08 nM [3H]Compound A, 25° C., 90 minutes. How it is done:
For binding assays, pellets of transfected cells are suspended in ice-cold buffer (20 mM Tris.HCl, 5 mM EDTA, pH 7.4) and homogenized by sonication for 7 sec. The cell lysates are centrifuged at 200×g for 5 min at 4° C. The supernatants are then centrifuged at 40,000×g for 20 min at 4° C. The resulting pellets are washed once in the homogenization buffer and suspended in binding buffer (see methods for radioligand binding). Protein concentrations are determined by the method of Bradford (1976) using bovine serum albumin as the standard. Binding assays are usually performed immediately, however it is possible to prepare membranes in batch and store frozen in liquid nitrogen for future use.
Radioligand binding assays for the rat MCH1 receptor were carried out using plasmid pcDNA3.1-rMCH1-f (ATCC Patent Deposit Designation No. PTA-3505). Plasmid pcDNA3.1-rMCH1-f comprises the regulatory elements necessary for expression of DNA in a mammalian cell operatively linked to DNA encoding the rat MCH1 receptor so as to permit expression thereof. Plasmid pcDNA3.1-rMCH1-f was deposited on Jul. 5, 2001, with the American Type Culture Collection (ATCC), 12301 Parklawn Drive, Rockville, Md. 20852, U.S.A. under the provisions of the Budapest Treaty for the International Recognition of the Deposit of Microorganisms for the Purposes of Patent Procedure and was accorded ATCC Patent Deposit Designation No. PTA-3505.
Human embryonic kidney Peak rapid 293 cells (Peakr293 cells) were transiently transfected with DNA encoding the MCH1 receptor utilizing the calcium phosphate method and cell membranes were prepared as described above. Binding experiments with membranes from Peakr293 cells transfected with the rat MCH1 receptor were performed with 0.08 nM [^3H]Compound A (custom labeled by Amersham) (the synthesis of Compound A is described in detail below) using an incubation buffer consisting of 50 mM Tris pH 7.4, 10 mM MgCl2, 0.16 mM PMSF, 1 mM 1,10 phenantroline and 0.2% BSA. Binding was performed at 25° C. for 90 minutes. Incubations were terminated by rapid vacuum filtration over GF/C glass fiber filters, presoaked in 5% PEI using […] Tris pH 7.4 as wash buffer. In all experiments, nonspecific binding is defined using […] Compound A.
The compounds described above were assayed using cloned rat MCH1.

Test [2] concerns G4F-7 cells. The note with it: cited from earlier work.
Test [3] has as its target T1, rat MCH-1. The following applies: one range printed for rat and human; cited from earlier work.
For test [4], the target named is human MCH-1 (Homo sapiens, UniProt Q99705). The following applies: one range printed for rat and human; cited from earlier work.
Test [5] deals with MCH-1 receptor (Rattus norvegicus, UniProt P97639). The note with it: in vivo; cited from earlier work.
Sequence of MCH-1 receptor (P97639 whole entry): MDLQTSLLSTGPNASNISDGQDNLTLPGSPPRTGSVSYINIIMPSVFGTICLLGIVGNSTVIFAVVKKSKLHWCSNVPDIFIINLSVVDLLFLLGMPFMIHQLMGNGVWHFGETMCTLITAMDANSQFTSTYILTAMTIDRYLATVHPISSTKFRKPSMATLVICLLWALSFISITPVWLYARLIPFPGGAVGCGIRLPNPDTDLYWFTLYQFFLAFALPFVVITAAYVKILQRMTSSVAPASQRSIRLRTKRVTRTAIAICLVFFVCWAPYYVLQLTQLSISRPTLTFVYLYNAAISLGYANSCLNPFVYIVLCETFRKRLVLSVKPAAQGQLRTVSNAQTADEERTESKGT

T1 sequence (P97639 whole entry): as above
Sequence of human MCH-1 (Q99705 whole entry): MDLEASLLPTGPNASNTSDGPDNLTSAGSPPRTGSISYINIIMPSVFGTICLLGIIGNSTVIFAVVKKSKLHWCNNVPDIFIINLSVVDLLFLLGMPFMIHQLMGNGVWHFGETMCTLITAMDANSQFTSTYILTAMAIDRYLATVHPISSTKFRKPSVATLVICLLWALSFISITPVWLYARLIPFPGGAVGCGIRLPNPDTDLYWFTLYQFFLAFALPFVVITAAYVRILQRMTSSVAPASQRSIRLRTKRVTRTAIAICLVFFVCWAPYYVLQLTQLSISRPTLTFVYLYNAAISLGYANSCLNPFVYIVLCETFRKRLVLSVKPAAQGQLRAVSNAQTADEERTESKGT

As a reminder, the Ki is a dissociation constant, usually derived from enzyme kinetics or from competition with a known ligand. With `COc1ccccc1CCCCC(=O)Nc1cc(C2CCNCC2)c(F)cc1F` [Example 11, N-[2,4-Difluoro-5-(4-Piperidinyl)Phenyl]-5-(2-Methoxyphenyl)Pentanamide], in test [1], the Ki was 46.6 nM. `O=C(CCCCCNc1ccc(F)c(F)c1)Nc1cccc(C2CCNCC2)c1` [Example 6, 6-(3,4-Difluoroanilino)-N-[3-(4-Piperidinyl) Phenyl]Hexanamide]: the Ki in test [1] came to 438 nM. For the compound `COc1ccccc1CCCCC(=O)Nc1cc(C2CCNCC2)ccc1F` [Example 10, N-[2-Fluoro-5-(4-Piperidinyl)Phenyl]-5-(2-Methoxyphenyl)Pentanamide], the inhibition constant Ki in test [1] came out at 20.9 nM.

Regarding `COc1ccc(CCCCC(=O)Nc2cccc(C3CCNCC3)c2)cc1` [Example 5, 5-(4-Methoxyphenyl)-N-[3-(4-Piperidinyl)Phenyl]Pentanamide], the inhibition constant (Ki) in test [1] turned out to be 476 nM. For the compound `COC(=O)C1=C(C)NC(=O)N(C(=O)NCCCC(=O)Nc2cccc(C3CCNCC3)c2)C1c1ccc(F)cc1` (centres unmarked) [Example 7, Methyl 4-(4-Fluorophenyl)-6-Methyl-2-Oxo-3-[({4-OXO-4-[3-(4-Piperidinyl)Anilino]Butyl}Amino)Carbonyl]-1,2,3,4-Tetrahydro-5-Pyrimidinecarboxylate], the Ki in test [1] is 142 nM. Turning to `O=C(Nc1cccc(C2CCNCC2)c1)c1cccnc1Oc1ccccc1` [Example 4, 2-Phenoxy-N-[3-(4-Piperidinyl) Phenyl]Nicotinamide], in test [1], the Ki came out at 353 nM.

As to `O=C(CCCCC(=O)c1ccccc1)Nc1cccc(C2CCNCC2)c1` [Example 3, 6-Oxo-6-Phenyl-N-[3-(4-Piperidinyl)Phenyl]Hexanamide], the Ki in test [1] was found to be 1100 nM. As to `O=C(CCCCC(=O)c1ccccc1)Nc1cc(C2CCNCC2)ccc1F` [Example 9, N-[2-Fluoro-5-(4-Piperidinyl) Phenyl]-6-Oxo-6-Phenylhexanamide], the Ki in test [1] amounted to 313 nM.

Take “native MCH: Melanin-concentrating hormone, a cyclic peptide”: the inhibitory constant (Ki) in test [2] (inhibition of radioiodinated [Phe13,Tyr19]-MCH binding) is 12 nM. As for `O=C(CCCCc1ccccc1)Nc1cccc(C2CCNCC2)c1` [Example 2, 5-Phenyl-N-[3-(4-Piperidinyl)Phenyl]Pentanamide], in test [1], the inhibition constant Ki amounted to 197 nM. The same measure, in the same setting: to `O=C(CCc1ccc(Oc2ccc(F)c(F)c2)cc1)Nc1cc(C2CCNCC2)ccc1F` [Example 12, 3-[4-(3,4-Difluorophenoxy)Phenyl]-N-[2-Fluoro-5-(4-Piperidinyl)Phenyl]Propanamide] belongs 33.8 nM. With `CN(C)CC1CCc2cc(NC(=O)c3ccc(-c4ccc(F)cc4)cc3)ccc2C1` (centres unmarked) [Example T-226296], the “affinity for the MCH-1 receptor” value in test [3] and in test [4] was 5 to 9 nM throughout. Besides, the “food intake induced by the intracerebroventricular application of MCH” value in test [5] is “inhibit food intake”. What is called Kd is a measure of binding affinity in units of concentration. Take [Phe^13,Tyr^19]-MCH: in test [2] (radioiodinated ligand, G4F-7 cells), the Kd is 0.118 nM. Regarding α-MSH, in test [2] (inhibition of radioiodinated [Phe13,Tyr19]-MCH binding, in words), the inhibition of binding result is recorded as “not inhibited”.

As for `COc1ccccc1CCCCC(=O)Nc1cccc(C2CCNCC2)c1` [Example 1, 5-(2-Methoxyphenyl)-N-[3-(4-Piperidinyl)Phenyl]Pentanamide], the Ki in test [1] is 79.6 nM.
